In ChEMBL document CHEMBL5104092, “An insight into the recent development of the clinical candidates for the treatment of malaria and their target proteins” (Eur J Med Chem, 2021):
Blank lines part the entries; values can stand above or below the compound they belong to.

Experiments:
Plasmodium falciparum [1] = assay: Antimalarial activity against chloroquine sensitive Plasmodium falciparum 3D7 incubated for 72 hrs by malaria SYBR green I nucleic acid staining dye based fluorescence assay; format: functional, organism-based; details: 3D7, 72 h
Plasmodium falciparum [2] = assay: Antimalarial activity against multidrug resistant Plasmodium falciparum Dd2 incubated for 72 hrs by malaria SYBR green I nucleic acid staining dye based fluorescence assay; format: functional, organism-based; details: Dd2, 72 h
Plasmodium falciparum [3] = assay: Antimalarial activity against multidrug resistant Plasmodium falciparum K1 incubated for 72 hrs by malaria SYBR green I nucleic acid staining dye based fluorescence assay; format: functional, organism-based; details: K1, 72 h
Plasmodium falciparum [4] = assay: Antimalarial activity against chloroquine sensitive Plasmodium falciparum 3D7 incubated for 72 hrs by SYBR green I assay; format: functional, organism-based; details: 3D7, 72 h
Plasmodium falciparum [5] = assay: Antimalarial activity against chloroquine resistant Plasmodium falciparum Dd2 incubated for 72 hrs by malaria SYBR green I based assay; format: functional, organism-based; details: Dd2, 72 h
Plasmodium falciparum [6] = assay: Antimalarial activity against chloroquine sensitive Plasmodium falciparum T96 infected in human erythrocytes by microplate fluorometric detection method; format: functional, organism-based
Plasmodium falciparum [7] = assay: Antimalarial activity against chloroquine resistant Plasmodium falciparum K1 infected in human erythrocytes by microplate fluorometric detection method; format: functional, organism-based
Plasmodium falciparum [8] = assay: Antimalarial activity against Plasmodium falciparum Dd2; format: functional, organism-based
HepG2 = assay: Cytotoxicity against human HepG2 cells; format: functional, cell-based
[9] = Cytotoxicity against human HEK293 cells; format: toxicity, cell-based
A549 = assay: Cytotoxicity against human A549 cells; format: functional

Structure (SMILES): C[C@@H]1CCC2[C@@H](C)[C@H](OC(=O)CCC(=O)NCCNc3ccnc4cc(Cl)ccc34)O[C@@H]3O[C@]4(C)CC[C@@H]1[C@@]23OO4 (stereo partly specified)
EC50 (Plasmodium falciparum [1]): 2.7 nM | EC50 (Plasmodium falciparum [2]): 1 nM | EC50 (Plasmodium falciparum [3]): 0.78 nM

Structure (SMILES): C=C(c1ccc(C)cc1C)C1COC2(CCC(Nc3ccccc3)CC2)OO1 (stereo unspecified)
IC50 (Plasmodium falciparum [4]): 19.6 nM

Structure (SMILES): CN(C)CCNc1cc(/C=C/c2ccncc2)nc2ccccc12
IC50 (Plasmodium falciparum [5]): 33 nM

Structure (SMILES): COC(=O)CC[C@@H](C)[C@H]1CCC2C3CC[C@@H]4CC5(CC[C@]4(C)C3C[C@H](OC(C)=O)[C@@]21C)OOC(C)(C)OO5 (stereo partly specified)
EC50 (Plasmodium falciparum [6]): 131 nM | EC50 (Plasmodium falciparum [7]): 3 nM

EC50 (Plasmodium falciparum [8]): 15 nM
Structure (SMILES): COc1ccc(NC(=O)N2CCCCN3C[C@H](c4ccc(C#Cc5ccccc5)cc4)[C@@H]3C2)cc1
CC50 (HepG2): > 50000 nM | CC50 [9]: > 50000 nM | CC50 (A549): 38000 nM
